Experimental data from patent US20250186510A1, “BACTERIAL COMPOSITION FOR USE IN TREATMENT OF SUBSTANCE USE DISORDER” (Bar-Ilan University, priority 2022, published 2025).
“Also recorded” adds a separate entry of the source.

What was measured:
[1] = system: gut microbial community of cocaine-trained rats; test: Gut microbiota throughout cocaine self-administration (beta diversity); conditions: day 3 vs day 12, p=0.001
[2] = system: gut microbiota in feces of naïve rats; test: Incubation of feces with cocaine and DHEA in vitro (16S rRNA sequencing, UniFrac, LEfSe)
Procedure: Bacterial taxa differences in fecal samples were analyzed using the Linear discriminant analysis effect size (LEfSe) method as a response for either cocaine or DHEA (0, 50, 100 and 500 μM). Stool of naïve rats was collected into 15 ml test tubes and stored under anaerobic conditions. The stool was homogenized using a vortex and mechanical stirring. After completion of the preparation, the fecal slurry was incubated at 37° C. under anaerobic conditions. Following a week of anaerobic incubation, DNA was extracted from the slurry, and 16S rRNA gene sequencing was performed (protocols described above).

[3] = system: cocaine-seeking behavior of rats; conditions: cited from earlier work
[4] = system: gut microbiota of cocaine-trained rats; test: Gut microbiota composition (16S rRNA sequencing, UniFrac, ANCOM) after DHEA during extinction
[5] = system: cocaine-seeking behavior of cocaine-trained rats; test: Extinction training after cocaine self-administration, daily DHEA; conditions: DHEA 2 mg/kg IP daily, days 13-22, vs Coc-Vehicle

SMILES: COC(=O)[C@H]1[C@@H](OC(=O)c2ccccc2)C[C@@H]2CC[C@H]1N2C [Cocaine, benzoylmethylecgonine]
- gut microbial community (beta diversity) over cocaine self-administration [1]: significant change
- number of overrepresented bacterial features (LEfSe) ([2]; cocaine 100 μM vs PBS): 12
- gut microbiota beta diversity (unweighted UniFrac distances) in vitro ([2]; cocaine 100 μM vs PBS, p=0.047): significantly changed
- number of overrepresented bacterial features (LEfSe) ([2]; cocaine 500 μM vs PBS): 15

SMILES: C[C@]12CC[C@H](O)CC1=CC[C@@H]1[C@@H]2CC[C@]2(C)C(=O)CC[C@@H]12 [DHEA, dehydroepiandrosterone]
- cocaine seeking behavior relative to maintenance levels ([3]; chronic exogenous DHEA 2 mg/kg, previous work): < 20%
- cocaine-seeking behavior, self-administration model ([3]; pretreatment with DHEA, background): attenuated cocaine-seeking behavior
- gut microbiota beta diversity (PCoA of unweighted UniFrac distances) ([4]; day 22, coc-DHEA compared with saline-vehicle): resembled those of rats that received vehicle; also recorded: induces a microbiota more similar to the saline control
- relative abundance of R. gnavus (ANCOM) ([4]; day 22, coc-DHEA vs cocaine-vehicle): increase in the relative abundance of R. gnavus; also recorded: Levels of R. gnavus rose
- changes in bacterial features (LEfSe) ([2]; DHEA 50 μM): no significant changes
- changes in bacterial features (LEfSe) ([2]; DHEA 100 μM): no significant changes
- gut microbiota composition (weighted UniFrac distances) in vitro ([2]; DHEA 100 μM vs PBS, p=0.036): significant change
- R. gnavus among overrepresented bacterial features ([2]; DHEA 500 μM): none of them belonged to R. gnavus; also recorded: not R. gnavus
- number of overrepresented bacterial features (LEfSe) ([2]; DHEA 500 μM vs PBS): 16
- gut microbiota composition (weighted UniFrac distances) in vitro ([2]; DHEA 500 μM vs PBS, p=0.02): significant change
- cocaine-seeking behavior (active lever presses) during extinction [5]: significantly reduced cocaine-seeking behavior
